In patent US11459323B2, “Monocyclic β-lactam compound for treating bacterial infection” (MEDSHINE DISCOVERY INC., priority 2018, dated 2022):
In brackets after ≈: the same amount, converted by molar mass. Read-outs that look alike come from different tables or passages of the source.

Tests used:
[1] = test system: Pseudomonas aeruginosa PA14; experiment: Lungs of immunosuppressed mice infected with Pseudomonas aeruginosa (2), lung bacterial load; type: in vivo; settings: 24 hours after infection, day, ip at 2 h, 4 h, 6 h, 8 h
Experimental: Pseudomonas aeruginosa PA14. 60 mice were intraperitoneally injected with 150 mg/kg cyclophosphamide on day 1 and day 4 to give immunosuppressed mice. […] [table] The mice were injected with 50 μL of bacterial solution (2×10^3 CFU) through the airway. 2 hours after the infection, 4 mice in the model group was sacrificed by removing cervical vertebra. Two hours after infection, the drugs were administered by groups, and the mice were administered intraperitoneally once at 2 hours, 4 hours, 6 hours, and 8 hours, a total of 4 times. Mice of each group were sacrificed by removing cervical vertebra 24 hours after infection, lung and kidney tissues were taken aseptically and put into a sterilized tissue homogenate tube, weighed, and an appropriate amount of normal saline (NS) was added, the mixture was homogenized by a homogenizer for 1 min, the lung tissues of the model group were diluted 10^4, 10^5, 10^6 times, the lung tissues of each administration group were diluted 10, 100 times, the kidney tissues of the model group were diluted 10^2, 10^3, 10^4 times, and the lung tissues of each administration group were diluted 10 times, the obtained mixtures were coated on TSA plates using spiral coater, then incubated at 37° C. overnight, and the CFU was counted with a colony counter. Graphpad Prism mapping software was used to make scatter plots of lung tissue CFU. SPSS19.0 software was used to count CFU and average body weight, and analysis of variance was used to analyze differences between groups.

[2] = test system: Pseudomonas aeruginosa W29; experiment: MIC on clinically isolated bacteria; type: cell-based
From the text: (§1) Twenty-five strains of clinically isolated Acinetobacter baumannii and twenty-seven strains of Pseudomonas aeruginosa were respectively selected and used to determine the minimum inhibitory concentration (MIC) of the compounds by micro-liquid dilution method according to the Institute of Clinical and Laboratory Standard (CLSI) requirements.

[3] = test system: Acinetobacter baumannii C408; experiment: MIC on clinically isolated bacteria; type: cell-based
From the text: as §1

[4] = test system: Acinetobacter baumannii C283; experiment: MIC on clinically isolated bacteria; type: cell-based
From the text: as §1

[5] = test system: Acinetobacter baumannii C427; experiment: MIC on clinically isolated bacteria; type: cell-based
From the text: as §1

[6] = test system: Acinetobacter baumannii C241; experiment: MIC on clinically isolated bacteria; type: cell-based
From the text: as §1

[7] = test system: Acinetobacter baumannii C403; experiment: MIC on clinically isolated bacteria; type: cell-based
From the text: as §1

[8] = test system: Acinetobacter baumannii C279; experiment: MIC on clinically isolated bacteria; type: cell-based
From the text: as §1

[9] = test system: Acinetobacter baumannii C251; experiment: MIC on clinically isolated bacteria; type: cell-based
From the text: as §1

[10] = test system: Pseudomonas aeruginosa C755; experiment: MIC on clinically isolated bacteria; type: cell-based
From the text: as §1

[11] = test system: Pseudomonas aeruginosa W21; experiment: MIC on clinically isolated bacteria; type: cell-based
From the text: as §1

[12] = test system: Acinetobacter baumannii C401; experiment: MIC on clinically isolated bacteria; type: cell-based
From the text: as §1

[13] = test system: Acinetobacter baumannii ATCC-BAA-1792; experiment: MIC on Acinetobacter baumannii strains; type: cell-based; settings: ATCCBAA1792
From the text: (§2) Twelve strains of Acinetobacter baumannii, A. baumannii ATCC 17978 (ATCC-BAA-1605, ATCC-BAA-1789, ATCC-BAA-1790, ATCC-BAA-1791, ATCC-BAA-1792, ATCC-BAA-1793, ATCC-BAA-1794, ATCC-BAA-1795, ATCC-BAA-1799, ATCC-BAA-1800, ATCC 19606, ATCC 17978) were used to determine the minimum inhibitory concentration (MIC) of the compounds by micro-liquid dilution method according to the Institute of Clinical and Laboratory Standard (CLSI) requirements.

[14] = test system: Acinetobacter baumannii ATCC-BAA-1799; experiment: MIC on Acinetobacter baumannii strains; type: cell-based; settings: ATCCBAA1799
From the text: as §2

[15] = test system: Acinetobacter baumannii ATCC-BAA-1800; experiment: MIC on Acinetobacter baumannii strains; type: cell-based; settings: ATCCBAA1800
From the text: as §2

[16] = test system: Acinetobacter baumannii ATCC-BAA-1791; experiment: MIC on Acinetobacter baumannii strains; type: cell-based; settings: ATCCBAA1791
From the text: as §2

[17] = test system: Acinetobacter baumannii ATCC-BAA-1793; experiment: MIC on Acinetobacter baumannii strains; type: cell-based; settings: ATCCBAA1793
From the text: as §2

[18] = test system: Acinetobacter baumannii ATCC-BAA-1789; experiment: MIC on Acinetobacter baumannii strains; type: cell-based; settings: ATCCBAA1789
From the text: as §2

[19] = test system: Acinetobacter baumannii ATCC 17978; experiment: MIC on Acinetobacter baumannii strains; type: cell-based; settings: ATCC17978
From the text: as §2

[20] = test system: Acinetobacter baumannii ATCC 19606; experiment: MIC on Acinetobacter baumannii strains; type: cell-based; settings: ATCC19606
From the text: as §2

[21] = test system: Acinetobacter baumannii ATCC-BAA-1795; experiment: MIC on Acinetobacter baumannii strains; type: cell-based; settings: ATCCBAA1795
From the text: as §2

[22] = test system: Acinetobacter baumannii ATCC-BAA-1794; experiment: MIC on Acinetobacter baumannii strains; type: cell-based; settings: ATCCBAA1794
From the text: as §2

[23] = test system: Acinetobacter baumannii ATCC-BAA-1605; experiment: MIC on Acinetobacter baumannii strains; type: cell-based; settings: ATCCBAA1605, ATCC-BAA-1605, read-out: MIC
From the text: as §2

[24] = test system: Acinetobacter baumannii ATCC-BAA-1790; experiment: MIC on Acinetobacter baumannii strains; type: cell-based; settings: ATCCBAA1790
From the text: as §2

P. aeruginosa ATCC 35151 = experiment: MIC by micro-liquid dilution method (CLSI); type: cell-based; settings: Pseudomonas aeruginosa, ATCC35151
E. coli ATCC 25922 = experiment: MIC by micro-liquid dilution method (CLSI); type: cell-based; settings: Escherichia coli, ATCC25922
[25] = Acinetobacter baumannii C408, read-out: Minimum Inhibitory Concentration (MIC)
[26] = Acinetobacter baumannii C283, read-out: Minimum Inhibitory Concentration (MIC)
[27] = Acinetobacter baumannii C427, read-out: Minimum Inhibitory Concentration (MIC)
[28] = Acinetobacter baumannii C241, read-out: Minimum Inhibitory Concentration (MIC)
[29] = Acinetobacter baumannii C403, read-out: Minimum Inhibitory Concentration (MIC)
[30] = Acinetobacter baumannii C279, read-out: Minimum Inhibitory Concentration (MIC)
[31] = Acinetobacter baumannii C251, read-out: Minimum Inhibitory Concentration (MIC)
[32] = Acinetobacter baumannii C401, read-out: Minimum Inhibitory Concentration (MIC)

Row | SMILES | LOG10-of bacterial load ([1]; total dosage 20 mg/kg) | LOG10-of bacterial load ([1]; total dosage 60 mg/kg) | MIC ([2]; read-out: MIC) | MIC [3, 25] | MIC [4, 26] | MIC [5, 27] | MIC [6, 28] | MIC [7, 29] | MIC [8, 30] | MIC [9, 31] | MIC ([10]; read-out: MIC) | MIC ([11]; read-out: MIC) | MIC [12, 32] | also measured
1 | CC1(C)[C@H](NC(=O)/C(=N\O[C@@H](COc2ccc3c(c2)CN(C(=N)NCCN)C3)C(=O)O)c2csc(N)n2)C(=O)N1OS(=O)(=O)O [Compound 44] | 6.80 ± 0.94 | 2.40 ± 1.99 | 2 µg/mL (≈ 2.99 µM) | 1 µg/mL (≈ 1.49 µM) | 1 µg/mL (≈ 1.49 µM) | 2 µg/mL (≈ 2.99 µM) | 2 µg/mL (≈ 2.99 µM) | 2 µg/mL (≈ 2.99 µM) | 1 µg/mL (≈ 1.49 µM) | 4 µg/mL (≈ 5.97 µM) | 0.5 µg/mL (≈ 0.747 µM) | 0.5 µg/mL (≈ 0.747 µM) | 1 µg/mL (≈ 1.49 µM) | 
2 | CC1(C)[C@H](NC(=O)/C(=N\O[C@@H](COc2ccc3c(c2)CN(C(=N)N(CCN)CCN)C3)C(=O)O)c2csc(N)n2)C(=O)N1OS(=O)(=O)O [Compound 45] |  |  | 16 µg/mL (≈ 22.4 µM) | 8 µg/mL (≈ 11.2 µM) | 16 µg/mL (≈ 22.4 µM) | 16 µg/mL (≈ 22.4 µM) | > 16 µg/mL | 16 µg/mL (≈ 22.4 µM) | 16 µg/mL (≈ 22.4 µM) | 16 µg/mL (≈ 22.4 µM) | 4 µg/mL (≈ 5.61 µM) | 4 µg/mL (≈ 5.61 µM) | 8 µg/mL (≈ 11.2 µM) | 
3 | CC1(C)[C@H](NC(=O)/C(=N\O[C@@H](COc2ccc3c(c2)CN(/C(=N\[C@@H]2CCCNC2)N[C@@H]2CCCNC2)C3)C(=O)O)c2csc(N)n2)C(=O)N1OS(=O)(=O)O [Compound 46] | 3.13 ± 2.45 | 0.34 ± 0.85 | 1 µg/mL (≈ 1.26 µM) | 4 µg/mL (≈ 5.04 µM) | 4 µg/mL (≈ 5.04 µM) | 4 µg/mL (≈ 5.04 µM) | 4 µg/mL (≈ 5.04 µM) | 4 µg/mL (≈ 5.04 µM) | 4 µg/mL (≈ 5.04 µM) | > 16 µg/mL | 0.5 µg/mL (≈ 0.631 µM) | 0.25 µg/mL (≈ 0.315 µM) | 4 µg/mL (≈ 5.04 µM) | 
4 | C[C@@H](O)[C@H]1C(=O)N2C(C(=O)O)=C(S[C@@H]3CN[C@H](C(=O)N(C)C)C3)[C@H](C)[C@H]12 [Meropenem, reference compound] |  |  | 4 µg/mL (≈ 10.4 µM) | 128 µg/mL (≈ 334 µM) | 64 µg/mL (≈ 167 µM) | 64 µg/mL (≈ 167 µM) | 64 µg/mL (≈ 167 µM) | 64 µg/mL (≈ 167 µM) | 64 µg/mL (≈ 167 µM) | 64 µg/mL (≈ 167 µM) | < 0.25 µg/mL | 16 µg/mL (≈ 41.7 µM) | 128 µg/mL (≈ 334 µM) | MIC [13]: 128 µg/mL (≈ 334 µM); MIC [14]: 128 µg/mL (≈ 334 µM); MIC [15]: > 128 µg/mL; MIC [16]: 64 µg/mL (≈ 167 µM); MIC [17]: > 128 µg/mL; MIC [18]: 64 µg/mL (≈ 167 µM); MIC [19]: 0.5 µg/mL (≈ 1.3 µM); MIC [20]: 2 µg/mL (≈ 5.22 µM); MIC [21]: 4 µg/mL (≈ 10.4 µM); MIC [22]: > 128 µg/mL; MIC [23]: 64 µg/mL (≈ 167 µM); MIC [24]: 128 µg/mL (≈ 334 µM); MIC (P. aeruginosa ATCC 35151): ≤ 0.125 µg/mL; MIC (E. coli ATCC 25922): ≤ 0.125 µg/mL
5 | CN(C)c1cc(NC(=O)CNC(C)(C)C)c(O)c2c1C[C@H]1C[C@H]3[C@H](N(C)C)C(O)=C(C(N)=O)C(=O)[C@@]3(O)C(O)=C1C2=O [Tigecycline, reference compound] |  |  |  |  |  |  |  |  |  |  |  |  |  | MIC [2]: 16 µg/mL (≈ 27.3 µM); MIC ([3]; Acinetobacter baumannii, C408, read-out: Minimum Inhibitory Concentration (MIC)): 1 µg/mL (≈ 1.71 µM); MIC ([4]; Acinetobacter baumannii, C283, read-out: Minimum Inhibitory Concentration (MIC)): 1 µg/mL (≈ 1.71 µM); MIC ([5]; Acinetobacter baumannii, C427, read-out: Minimum Inhibitory Concentration (MIC)): 1 µg/mL (≈ 1.71 µM); MIC ([6]; Acinetobacter baumannii, C241, read-out: Minimum Inhibitory Concentration (MIC)): 2 µg/mL (≈ 3.41 µM); MIC ([7]; Acinetobacter baumannii, C403, read-out: Minimum Inhibitory Concentration (MIC)): 1 µg/mL (≈ 1.71 µM); MIC ([8]; Acinetobacter baumannii, C279, read-out: Minimum Inhibitory Concentration (MIC)): 1 µg/mL (≈ 1.71 µM); MIC ([9]; Acinetobacter baumannii, C251, read-out: Minimum Inhibitory Concentration (MIC)): 8 µg/mL (≈ 13.7 µM); MIC [10]: 4 µg/mL (≈ 6.83 µM); MIC [11]: 8 µg/mL (≈ 13.7 µM); MIC ([12]; Acinetobacter baumannii, C401, read-out: Minimum Inhibitory Concentration (MIC)): 1 µg/mL (≈ 1.71 µM)
